Details in all cases: incubation time: 72 h
One experiment deals with BT-474. As to the kind of experiment: normalised response (% of control), CellTox Green; higher = less cell death (100 = DMSO, 0 = benzethonium chloride kill control). Put shortly: (§1)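 In 384-well plates holding compound at 5 concentrations in 10-fold steps over a 10,000-fold range specific to each compound, breast cancer cell lines were seeded as 20 µl suspension and incubated 72 h. CellTox Green fluorescence was measured at 485/520 nm, after which CellTiter-Glo luminescence was measured following 10 min at room temperature. Plate signals were normalised to 0.1 % DMSO (100) and a positive kill control (0), and each value is the normalised signal at a single concentration.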

A further experiment has as its system BT-549. Described as above. Put shortly:
as §1

Another experiment relates to CAL-120. The experiment is described as above. Put shortly: as §1
In the next experiment the test system is CAL-148. The experiment is described as above. Put shortly: as §1
The next experiment has as its system CAL-51. The experiment is described as above. Put shortly:
as §1

The test system of experiment [1] is CAL-85-1. The experiment is described as above. Put shortly:
as §1

The subject of a further experiment is DU-4475. The experiment is described as above. Put shortly:
as §1

Another experiment deals with HCC1143. Described as above. Put shortly: as §1
A further experiment has as its system HCC1599. The description is as above. Put shortly:
as §1

In the next experiment the test system is HCC1937. Described as above. Put shortly: as §1
Experiment [2] has as its system HDQ-P1. The experiment is described as above. Put shortly:
as §1

The next experiment has as its system Hs578T. Described as above. Put shortly: as §1
Another experiment relates to MCF-10A. Described as above. Put shortly:
as §1

Another experiment deals with MDA-MB-231. The experiment is described as above. Put shortly: as §1
For another experiment, the system named is MDA-MB-436. The experiment is described as above. Put shortly:
as §1

The test system of the next experiment is MDA-MB-453. The experiment is described as above. Put shortly:
as §1

A further experiment concerns MDA-MB-468. The description is as above. Put shortly: as §1
The subject of another experiment is MFM-223. The experiment is described as above. Put shortly: as §1
Experiment [3] deals with CAL-85-1. As to the kind of experiment: drug sensitivity score (DSS), CellTiter-Glo (DSS (AUC-based score)); higher = stronger drug effect (viability inhibition or cytotoxicity); extreme values may be limits of the assay. Put shortly: (§2)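 Compound was dispensed into 384-well plates at 5 concentrations in 10-fold steps spanning a 10,000-fold range chosen for each compound, and 20 µl of breast cancer cell suspension was added before 72 h of incubation. CellTox Green fluorescence was read at 485/520 nm, followed by CellTiter-Glo luminescence after 10 min at room temperature. Values on each plate were normalised to 0.1 % DMSO and a positive kill control. The drug sensitivity score came from the area under the fitted dose-response curve.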
(In general: ATP-based viability assays read luminescence as a measure of living cells.)

Experiment [4] relates to HDQ-P1. The experiment is described as above. Put shortly: as §2

Experimental findings from the supplement of paper PMC4862054 are described below.

Consider `CCN(CC)CCNC(=O)c1c(C)[nH]c(/C=C2\C(=O)Nc3ccc(F)cc32)c1C` [Sunitinib] (100 nM), for which the normalised response in the experiment on BT-474 is 103%; in the experiment on BT-549, 127%; in the experiment with CAL-120, 98.3%; with CAL-148, 86%; with CAL-51, 86.5%; with CAL-85-1 [1] it was 99.8%. Moreover, the normalised response in the experiment with DU-4475 stood at 98.1%; in the experiment with HCC1143, 107%; in the experiment on HCC1599, 106%; in the experiment on HCC1937 it was 114%; with HDQ-P1 [2], 76.8%; in the experiment on Hs578T, 77%. In addition, the normalised response worked out at 108% in the experiment on MCF-10A; 123% in the experiment with MDA-MB-231; 97.1% in the experiment on MDA-MB-436; 102% in the experiment on MDA-MB-453; 102% in the experiment on MDA-MB-468; 101% in the experiment with MFM-223.
Turning to `O=C(Nc1c[nH]nc1-c1nc2ccc(CN3CCOCC3)cc2[nH]1)NC1CC1` [AT9283] (1000 nM), the normalised response worked out at 89.1% with BT-474; 70.5% in the experiment on BT-549; 57.7% in the experiment with CAL-120; 83.9% in the experiment on CAL-148; 56% in the experiment on CAL-51; 37.8% in the experiment on CAL-85-1 [1]. The normalised response amounted to 106% in the experiment with DU-4475; 119% in the experiment on HCC1143; 105% in the experiment with HCC1599; 116% in the experiment with HCC1937; 88.2% in the experiment on HDQ-P1 [2]; 83.2% in the experiment on Hs578T. The normalised response in the experiment with MCF-10A turned out to be 88.4%; in the experiment on MDA-MB-231 it was 40.6%; with MDA-MB-436, 77.6%; in the experiment on MDA-MB-453, 101%; with MDA-MB-468, 65.6%; in the experiment on MFM-223 it was 75%.
For the compound `O=C(NC[C@H](O)CO)c1ccncc1Nc1ccc(I)cc1F` [Pimasertib], the drug sensitivity score is 8.66 in the experiment on CAL-85-1 [3] and 13 in the experiment on HDQ-P1 [4].
Consider `Cc1c(CN2CCN(C(=O)[C@H](C)O)CC2)sc2c(N3CCOCC3)nc(-c3cnc(N)nc3)nc12` [GDC-0980] (10000 nM), for which the normalised response in the experiment with BT-474 is 53.5%; in the experiment with BT-549, 95.2%; with CAL-120, 104%; with CAL-148, 49.1%; in the experiment with CAL-51, 18%; in the experiment with CAL-85-1 [1], 58%. In addition, the normalised response with DU-4475 is 85.5%; with HCC1143, 47%; in the experiment on HCC1599, 96.9%; in the experiment on HCC1937, 101%; in the experiment on HDQ-P1 [2] it was 41.6%; in the experiment on Hs578T, 98.8%. In addition, the normalised response was 88.3% in the experiment with MCF-10A; 98.1% with MDA-MB-231; 98.5% in the experiment on MDA-MB-436; 86.7% in the experiment with MDA-MB-453; 119% with MDA-MB-468; -39.7% in the experiment on MFM-223.
Regarding `CCN(CC)CCNC(=O)c1c(C)[nH]c(/C=C2\C(=O)Nc3ccc(F)cc32)c1C` [Sunitinib] (1000 nM), the normalised response amounted to 95% with BT-474; 104% in the experiment with BT-549; 98.2% in the experiment on CAL-120; 85.4% with CAL-148; 106% in the experiment on CAL-51; 66.5% with CAL-85-1 [1]. For the same compound, the normalised response with DU-4475 was 99.7%; with HCC1143, 82.8%; with HCC1599, 105%; in the experiment with HCC1937, 93.9%; in the experiment on HDQ-P1 [2], 101%; with Hs578T, 95.9%. Further, the normalised response with MCF-10A came to 80.6%; with MDA-MB-231, 124%; with MDA-MB-436, 106%; in the experiment on MDA-MB-453, 104%; in the experiment with MDA-MB-468 it was 66.4%; in the experiment with MFM-223, 99.2%.
In the case of `CCCCC/C=C/C=C1/C(=O)C=C[C@@H]1C/C=C\CCCC(=O)O` [15D-PGJ2], the drug sensitivity score with CAL-85-1 [3] and in the experiment on HDQ-P1 [4] was 0 each time.
Take `COc1ccc(-c2cc3c(C)nc(N)nc3n([C@H]3CC[C@H](OCCO)CC3)c2=O)cn1` (1000 nM): the normalised response in the experiment with BT-474 came to 49.8%; in the experiment on BT-549, 115%; in the experiment with CAL-120, 98.5%; in the experiment with CAL-148, 51.2%; with CAL-51, 43.9%; with CAL-85-1 [1], 79.9%. The normalised response is 86.2% in the experiment with DU-4475; 79.8% with HCC1143; 90.4% with HCC1599; -51.2% in the experiment with HCC1937; 84.7% in the experiment on HDQ-P1 [2]; 101% in the experiment on Hs578T. Besides, the normalised response in the experiment on MCF-10A came out at 93.2%; in the experiment on MDA-MB-231, 76.8%; with MDA-MB-436, 113%; with MDA-MB-453 it was 84.2%; in the experiment on MDA-MB-468, 123%; with MFM-223, 81%.
In the case of `Cc1ccc(Nc2nccc(N(C)c3ccc4c(C)n(C)nc4c3)n2)cc1S(N)(=O)=O` [Pazopanib] (10000 nM), the normalised response in the experiment on BT-474 came to 99.5%; in the experiment with BT-549 it was 119%; with CAL-120, 94%; with CAL-148 it was 100%; in the experiment on CAL-51 it was 76.9%; in the experiment on CAL-85-1 [1], 78.9%. Moreover, the normalised response worked out at 104% with DU-4475; 55.8% in the experiment on HCC1143; 100% in the experiment with HCC1599; 85.7% in the experiment with HCC1937; 111% in the experiment on HDQ-P1 [2]; 77.2% with Hs578T. The normalised response was 94.8% in the experiment on MCF-10A; 99.7% with MDA-MB-231; 96.9% in the experiment with MDA-MB-436; 102% with MDA-MB-453; 162% in the experiment with MDA-MB-468; 96.1% in the experiment on MFM-223.
In the case of `O=C1c2c(O)ccc(O)c2C(=O)c2c(NCCNCCO)ccc(NCCNCCO)c21` [Mitoxantrone] (100 nM), the normalised response in the experiment with BT-474 was 101%; in the experiment with BT-549 it was 117%; in the experiment with CAL-120 it was -30.1%; in the experiment with CAL-148 it was 82.3%; in the experiment with CAL-51, 92.8%; in the experiment with CAL-85-1 [1], 101%. The normalised response in the experiment on DU-4475 is 99.1%; in the experiment on HCC1143, 109%; in the experiment on HCC1599, 91%; with HCC1937 it was 117%; with HDQ-P1 [2], 101%; with Hs578T, 106%. In addition, the normalised response with MCF-10A was 113%; in the experiment with MDA-MB-231 it was 94.8%; in the experiment with MDA-MB-436 it was 87.8%; with MDA-MB-453 it was 104%; in the experiment on MDA-MB-468, 158%; in the experiment on MFM-223, 101%.
